Experimental data taken from patent US20070212408A1, “Stable Pharmaceutical Composition Containing Benzimidazole Derivatives and Method of Manufacturing the Same” (priority 2004, published 2007).

Tests used:
[1] = Storage stability test of inclusion complexes containing lansoprazole (Test Example 1), HPLC content; type: physicochemical; conditions: 60° C., 75% RH
[2] = Storage stability test of inclusion complexes containing lansoprazole (Test Example 3), HPLC content; type: physicochemical; conditions: 60° C., 75% RH, relative to initial content

Cc1c(OCC(F)(F)F)ccnc1C[S+]([O-])c1nc2ccccc2[nH]1 (stereo not drawn) [lansoprazole]
Content after 1 wk (%) ([1]; 1 wk, relative to initial content, HPLC): 96.62%
Content after 2 wk (%) ([1]; 2 wk, relative to initial content, HPLC): 76.88%
Color Change after 4 wk ([1]; 4 wk): Dark brown
Content after 4 wk (%) ([1]; 4 wk, relative to initial content, HPLC): Not detected
Content after 1 wk (%) ([2]; 1 wk): 96.62%
Content after 2 wk (%) ([2]; 2 wk): 76.88%
